Ends that are not written are not given here.
Tests used:
Format in all cases: in vivo, human
[1] = tested on: patients with benign prostatic hyperplasia (BPH); assay: Double-blind BPH study, single intraprostatic injection followed by conventional oral BPH medications, IPSS (Example One); conditions: NTP peptide plus additional oral medication vs placebo plus additional oral medication
Source text: In a study of 97 patients who had or had not previously ever taken conventional approved oral medications for their benign prostatic hyperplasia (BPH), the patients received a double-blind single injection of a specific peptide described by the amino acid sequence Ile-Asp-Gln-Gln-Val-Leu-Ser-Arg-Ile-Lys-Leu-Glu-Ile-Lys-Arg-Cys-Leu (hereinafter “DRUG”) (n=61) or vehicle alone (placebo) (n=36) and were followed clinically for 2-5 years. Patients with BPH were given an intraprostatic injection of either a) DRUG in phosphate buffered saline pH 7.2 (“PBS”) or b) PBS alone, under double-blind conditions by a urologist in an office setting under ultrasound guidance. Patients were followed for 2 to 5 years with regular physical examinations, laboratory tests, and evaluations of symptoms. […]
Symptomatic evaluation was measured by the International Prostate Symptom Score (IPSS) which is a quantitative scale used to gauge prostatic symptomatic improvement or worsening. The IPSS quantifies the following: 1) incomplete bladder emptying after urination; 2) frequent urination; 3) stopping and starting during urination; 4) urgent need to urinate; 5) weakness of urinary stream; 6) need to push or strain during urination; 7) need to urinate after going to sleep at night (nocturia). […]

[2] = tested on: patients with BPH not previously on conventional oral medications; assay: BPH study in patients never before on oral BPH medications, injection then oral medications, Symptom Score (Example Two)
Procedure: In a study of 30 patients who had not previously ever taken conventional approved oral medications for their BPH, the patients received a double-blind single injection of DRUG (n=21) or vehicle alone (placebo) (n=9) and were followed clinically for 2-5 years. Patients from both of the above drug and vehicle only placebo groups who had not previously received conventional oral medications and subsequently went on conventional oral medications were evaluated for their responses to the conventional oral BPH medications.

patients with BPH = assay: Cross-over study: BPH patients on PBS plus oral medication, then additional DRUG injection, IPSS (Example Three); conditions: same patients after cross-over to DRUG vs PBS + oral medication
Procedure: In another study, patients with BPH were given an intraprostatic injection of PBS pH 7.2 vehicle alone, under double-blind conditions by a urologist in an office setting under ultrasound guidance. Patients were followed for 1 to 3 years with regular physical examinations, laboratory tests, and evaluations of symptoms. Patients who received PBS vehicle alone injections and who subsequently received in addition conventional oral medications used to treat BPH such as alpha blockers were assessed before and after receiving an additional injection of DRUG in phosphate buffered saline pH 7.2 (“PBS”). Symptomatic evaluation was measured by the International Prostate Symptom Score (IPSS) which is a quantitative scale used to gauge prostatic symptomatic improvement or worsening. The difference from baseline IPSS was compared in patients who were given blinded PBS only plus conventional oral medications vs results in the same patients on oral medications after cross-over to DRUG.

[3] = tested on: patients with BPH who subsequently underwent surgical treatment; assay: BPH study: single injection, subsequent surgical treatment, Symptom Score (Example Four)
Source text: 973 patients who had not previously ever undergone surgical procedures for their BPH (including all types of surgical procedures such as transurethral resection of the prostate, laser ablation, microwave, needle ablation, and other minimally invasive surgical treatments) received a double-blind single injection of DRUG or vehicle alone (placebo) and were followed clinically for 2-5 years. All (N=58) patients from the above drug and vehicle alone placebo groups who had not previously undergone surgical treatment for their BPH and who subsequently underwent surgical treatment for their BPH (N=58) were then evaluated for their responses to the surgical procedures.

Sequence: IDQQVLSRIKLEIKRCL [DRUG]
- Mean IPSS Improvement, when compared to the control [1]: about 40%
- Mean IPSS Improvement, when compared to the control ([2]; naive patients, NTP peptide then oral medication vs placebo then oral medication): about 221%
- mean improvement in Symptom Score ([2]; oral-medication-naive patients, single injection then conventional oral BPH medication, 2-5 years, n=21): 7.48 points
- Mean IPSS Improvement, when compared to the control (patients with BPH): about 110%
- Mean IPSS Improvement, when compared to the control ([3]; NTP peptide prior to surgical treatment vs placebo prior to surgery): about 142%
- mean improvement in Symptom Score after surgery ([3]; single injection, subsequent surgical treatment for BPH, n=31): 15.3 points
